Measurements reported in PubChem BioAssay AID504625 (Southern Research Specialized Biocontainment Screening …, 2011).

Test system: human PBMC, HIV-1 X4 replication, supernatant RT activity
Assay: anti-HIV-1 activity in primary human blood cells – cell-based, human PBMC, set 3, dose response (AID 504625)

SMILES: Cc1c2c(=O)n(-c3nc4ccccc4s3)nc-2cc(O)n1Cc1ccccc1
- IC50: 1510 nM
